In patent US20240024479A1, “NK CELLS OR T CELLS EXPRESSING CHIMERIC HEMATOPOIETIC GROWTH FACTOR RECEPTORS AND METHODS OF USE” (The United States of America, as represented by the …, priority 2020, published 2024):

Legend:
[1] = test system: c-MPL transduced NK cells; test: Proliferation of c-MPL-expressing human NK cells with thrombopoietin mimetics; type: cell-based; settings: 4-5 days culture
Method: FIGS. 16A-16C show proliferation of human NK cells transduced to express GFP and c-MPL cultured for 4-5 days with the indicated concentrations of thrombopoietin (FIG. 16A), romiplostim (FIG. 16B), or eltrombopag (FIG. 16C). […] Mean and SEM of results from 3 blood donors are shown.
NK cells from PBMC from three blood donors were stimulated and transduced to express GFP and c-MPL, then were cultured for 4-5 days with thrombopoietin, romiplostim, or eltrombopag.

GFP+ MPL+ NK cells = test: Degranulation assay and cytokine production, c-MPL-transduced primary NK cells with K562; type: cell-based, human
Method: To examine degranulation, cells were washed after two hours and stained with anti-CD107a (H4A3) (BioLegend). To assay cytokine production, GolgiPlug and GolgiStop (BD Biosciences) were added at manufacturer's recommended concentrations within the first hour of co-culture with K562. After 4 hours, cells were washed and stained for cell surface markers, then stained intracellularly with mAb recognizing TNF-α (Mab 11) and IFN-γ (B27) (BD Biosciences).

GFP+ MPL+ cells = test: Persistence of transduced human NK cells in immunodeficient mice; type: in vivo, NSG mice; settings: for average percentage of GFP+ MPL+ cells amongst the recovered human cells: TPO 50 μg/kg daily, 4 days, about 10% of injected cells
Source text: Both populations were then mixed at a 1:1 ratio immediately before injection intravenously into NSG mice (such that GFP^+ MPL^+ cells and GFP^+ CD34^+ cells each constituted ˜10% of the mixed cells). Each mouse received 2.2×10^7 total human NK cells. […] MPL-transduced NK cells were identified as GFP^+ MPL^+ while CD34-transduced NK cells were gated as GFP^+ CD34^+. The frequency of transduced cells is presented (FIG. 14A) as a percentage of MHC-I^+ human cells isolated from organs or (FIG. 14B) as percent of total live mononuclear cells recovered from each organ. The legend applies to both FIGS. 14A and 14B. Data from 9 mice per group are shown with NK cells derived from 3 human blood donors. Data was normalized to account for unequal transduction or subset mixing before injection using the equation: […]
Persistence of transduced human NK cells in immunodeficient mice: NK cells from human PBMC were transduced with matched lentiviral vectors encoding GFP/MPL or GFP/CD34 then mixed at a 1:1 ratio and injected intravenously into NSG mice (2.2×10^7 total cells/mouse). […] After euthanasia, blood was drawn by cardiac puncture, bone marrow was harvested by flushing the tibia, and spleen, liver, and lung fragments were processed by grinding over 70 μm nylon mesh. Blood, bone marrow, lung, and spleen samples received 1-2 rounds of 5 minute incubations with ACK lysis buffer (Quality biological). Liver samples were purified by centrifugation over 35% Percoll (Sigma) solution in RPMI. The presence of transduced human cells was quantified in various organs via flow cytometry using antibodies to human MHC class I (W6/32) (BioLegend), c-MPL (1.6.1), CD34 (581) (BD BioSciences), GFP-fluorescence, and Live/Dead Aqua viability dye (Thermo Fisher).

c-MPL+ NK-92 cells [2] = test: Short-term expansion and apoptosis assay, c-MPL+ NK-92; type: cell-based, human; settings: TPO plus LD IL-2 vs LD IL-2 alone; day 3
Method: In vitro cell expansion cultures: The NK-92 (5×10^4 cell/ml) and KHYG-1 (1×10^4 cell/ml) cells were cultured in 1 ml of complete medium in 24-well plate. […] Trypan blue negative cells were counted every other day. […] For competitive primary NK and T cell expansion assay, all transduced cells (5×10^5/ml for NK and 4×10^5/ml for T cell) containing a mixture of GFP positive (transduced) and GFP negative (untransduced) cells were plated on day 0. Fresh medium with appropriate supplements was replaced every other day for NK cells and only on day 3 for T cell experiment. Viable cells were counted and percentage of GFP^+ cells was acquired on indicated days (NK: day 4 and 6, T: day 3 and 6). The fold change of GFP^+ cells was calculated by multiplying the counted cell number times the fraction GFP^+.
(§1) Staining was performed in phosphate-buffered saline (PBS) with 2% FBS and 2 mM EDTA and analyzed on a BD LSRFortessa machine. If intracellular staining was required, BD cytofix/cytoperm (BD Biosciences) was applied for cell fixation and permeabilization after surface staining. The apoptosis assay was performed using PE annexinV apoptosis detection kit (BD Biosciences). The data were analyzed on FlowJo software.

c-MPL+ NK-92 cells [3] = test: Flow cytometry of cell signaling and anti-apoptotic proteins, c-MPL+ NK-92; type: cell-based, human
Method: as §1
Expression of target proteins was evaluated afterward by flow cytometry as described above.

[4] = test system: GFP+ MPL+ transduced cells; test: Cell surface phenotype of c-MPL-transduced primary NK cells; type: cell-based, human
Method: Human NK cells were stimulated and transduced with c-MPL/GFP lentiviral vectors. […] After 4 days, cellular function was assessed by mixing at a 1:1 ratio with K562 target cells and assessing (FIG. 13A) NK cell degranulation (by surface anti-CD107a staining) two hours later, or (FIG. 13B) intracellular IFN-γ and TNF-α four hours after addition of K562. Results for gated GFP transduced cells or independent untransduced cultures from the same donors are shown. The cell surface phenotype of the NK cells was also assessed after 4 days of culture with cytokines as indicated (FIG. 13C).
Flow cytometry, reagents and pathway analysis: Fluorochrome-conjugated monoclonal antibodies were used as follows: BD Biosciences: CD56-PE-Cy7 (NCAM16.2), CD3-PE (UCHT1), c-MPL-PE (1.6.1), STAT5(pY694)-Alexa Fluor647 (47/stat5(pY694)), NKp46-APC (9E2), NKp44-PE (p44-8), FAS-PE (DX2) CD62L-V450 (DREG-56); R&D systems: EPOR-PE (FAB307P); Biolegend: Bc1-2-PE (100), TRAIL-APC (RIK-2), CXCR4-BV421 (12G5), KIR3DL1-BV421 (DX9); Abcam: Bcl-xL-PE (ab208747); Cell signaling technology: P-p44/42 MAPK-Alexa Fluor647 (E10) and p-S6 ribosomal protein-PE (D57.2.2E); Beckman Coulter: NKG2A-PE (Z199), KIR2DL1/S1-PE (EB6B), KIR2DL2/3-PE/Cy5.5 (GL183). Staining was performed in phosphate-buffered saline (PBS) with 2% FBS and 2 mM EDTA and analyzed on a BD LSRFortessa machine. […] The data were analyzed on FlowJo software.

TPO: recombinant human thrombopoietin, ligand of the c-MPL receptor; 50 ng/ml rhTPO (R&D)
proliferation of c-MPL transduced NK cells [1]: induce proliferation
degranulation in GFP+ MPL+ NK cells (CD107a) (GFP+ MPL+ NK cells; TPO added to 25 U/ml IL-2, 4 days, K562 1:1): 83%
percent of GFP MPL transduced NK cells that produced IFN-γ or TNF-α (GFP+ MPL+ NK cells; TPO added to 25 U/ml IL-2 vs 25 U/ml IL-2 alone, co-cultured with K562): considerably augmented
GFP+ MPL+ cells as percentage of total live cells from each organ, vs GFP+ CD34+ control cells (GFP+ MPL+ cells; TPO-treated mice): significantly more
average percentage of GFP+ MPL+ cells amongst the recovered human cells (GFP+ MPL+ cells; blood and spleen): 15%
average percentage of GFP+ MPL+ cells amongst the recovered human cells (GFP+ MPL+ cells; liver and lung): 20%
proportion of dead/apoptotic cells (c-MPL+ NK-92 cells [2]): significantly lower proportions of dead/apoptotic cells
pS6 expression (c-MPL+ NK-92 cells [3]; TPO added to LD IL-2): 11.84
STAT5 phosphorylation, additivity (c-MPL+ NK-92 cells [3]; TPO combined with LD IL-2): No additive effects
pSTAT5 expression (c-MPL+ NK-92 cells [3]; TPO vs no IL-2 control, comparable to LD IL-2): appeared to increase pSTAT5 expression
Bcl-2 RMFI (c-MPL+ NK-92 cells [3]; TPO, 24 hours, no IL-2): 64.54
Bcl-xL RMFI (c-MPL+ NK-92 cells [3]; TPO, 24 hours, no IL-2): 4.52
phospho-p44/42 MAPK expression (c-MPL+ NK-92 cells [3]; cultures supplemented with IL-2 or TPO, 15 minutes): No alteration
CD62L expression ([4]; TPO added to media containing 25 U/ml IL-2, normalized to each donor): significantly increased CD62L expression
NK cell phenotype other than CD62L ([4]; TPO added to media containing 25 U/ml of IL-2): no phenotypic differences
